In the supplement of paper PMC10627819:

Key:
[1] = tested on: B. subtilis 168; test: fitness (endpoint OD595 vs no drug) (fraction); higher = more growth
Procedure, shortened: (§1)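 Fitness is computed from the optical density at which cultures reach stationary phase, divided by the robust mean of no-drug control wells. Any value above 1 is set to 1. Cultures started at OD595 0.01 in 384-well plates with TSB, LB Lennox or CY at 37 °C, and OD595 was read every 30 min for 14 h against a first-reading background.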

[2] = tested on: S. aureus DSM 20231; test: as above
Procedure, shortened: as §1

[3] = tested on: S. aureus Newman; test: as above
Procedure, shortened: as §1

[4] = tested on: S. pneumoniae D39V; test: as above
Procedure, shortened: as §1

[5] = tested on: B. subtilis 168; test: Bliss interaction score (quartile over a dose matrix) (fitness difference); higher = more antagonism (negative = synergy)
Procedure, shortened: (§2)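 The Bliss score takes observed fitness and subtracts the expected fitness, calculated as a product of single-drug fitness values. Those single-drug values were inferred from the combination data. Fitness is OD595 at entry into stationary phase divided by the plate's robust no-drug mean, capped at 1, and the score is summarised by quartiles across technical, biological and donor/recipient replicates.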

[6] = tested on: S. aureus DSM 20231; test: as above
Procedure, shortened: as §2

[7] = tested on: S. aureus Newman; test: as above
Procedure, shortened: as §2

[8] = tested on: S. pneumoniae D39V; test: as above
Procedure, shortened: as §2
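For Bliss interaction score (quartile over a dose matrix) in this document: first quartile when negative (synergy) and third quartile when positive (antagonism).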
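For fitness (endpoint OD595 vs no drug) in this document: OD595 on entry to stationary phase over no-drug wells; at most 1.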

CCCCCCCCCC(=O)N[C@@H](Cc1c[nH]c2ccccc12)C(=O)N[C@H](CC(N)=O)C(=O)N[C@@H](CC(=O)O)C(=O)N[C@@H]1C(=O)NCC(=O)N[C@@H](CCCN)C(=O)N[C@@H](CC(=O)O)C(=O)N[C@H](C)C(=O)N[C@@H](CC(=O)O)C(=O)NCC(=O)N[C@H](CO)C(=O)N[C@@H]([C@H](C)CC(=O)O)C(=O)N[C@@H](CC(=O)c2ccccc2N)C(=O)O[C@@H]1C [Daptomycin] + CC1=C\[C@@H](O)CC(=O)Cc2nc(co2)C(=O)N2CCC=C2C(=O)O[C@H](C(C)C)[C@H](C)/C=C/C(=O)NC\C=C\1 [Virginiamycin M1]
fitness
Conditions | first compound 0.125 µg/mL | first compound 0.25 µg/mL | first compound 0.5 µg/mL | first compound 1 µg/mL | first compound 2 µg/mL | first compound 4 µg/mL
[1], partner 0.0625 µg/mL | 0.946 | 0.924 | 0.894 | – | – | –
[1], partner 0.125 µg/mL | 0.92 | 0.931 | 0.862 | – | – | –
[1], partner 0.25 µg/mL | 0.93 | 0.934 | 0.891 | – | – | –
[2], partner 0.0625 µg/mL | – | – | ≥ 1 | ≥ 1 | 0.966 | –
[2], partner 0.125 µg/mL | – | – | ≥ 1 | ≥ 1 | 0.959 | –
[2], partner 0.25 µg/mL | 0.944 | 0.918 | ≥ 1 | ≥ 1 | 0.972 | –
[3], partner 0.0625 µg/mL | ≥ 1 | ≥ 1 | 0.981 | – | – | –
[3], partner 0.125 µg/mL | ≥ 1 | ≥ 1 | 0.994 | – | – | –
[3], partner 0.25 µg/mL | 0.984 | 0.999 | 0.975 | – | – | –
[4], partner 0.5 µg/mL | – | – | – | 0.991 | 0.984 | 0.976
[4], partner 1 µg/mL | – | – | – | 0.992 | ≥ 1 | 0.997
[4], partner 2 µg/mL | – | – | – | 0.909 | 0.927 | 0.919

one replicate
Conditions | fitness
[1], first compound 1 µg/mL, partner 0.0625 µg/mL | 0.702
[1], first compound 1 µg/mL, partner 0.125 µg/mL | 0.698
[1], first compound 1 µg/mL, partner 0.25 µg/mL | 0.765
[2], first compound 0.125 µg/mL, partner 0.0625 µg/mL | 0.898
[2], first compound 0.125 µg/mL, partner 0.125 µg/mL | ≥ 1
[2], first compound 0.125 µg/mL, partner 0.5 µg/mL | 0.906
[2], first compound 0.125 µg/mL, partner 1 µg/mL | 0.887
[2], first compound 0.25 µg/mL, partner 0.0625 µg/mL | 0.855
[2], first compound 0.25 µg/mL, partner 0.125 µg/mL | ≥ 1
[2], first compound 0.25 µg/mL, partner 0.5 µg/mL | 0.92
[2], first compound 0.25 µg/mL, partner 1 µg/mL | 0.838
[2], first compound 0.5 µg/mL, partner 0.5 µg/mL | 0.908
[2], first compound 0.5 µg/mL, partner 1 µg/mL | 0.848
[3], first compound 0.5 µg/mL, partner 0.5 µg/mL | 0.894
[3], first compound 0.5 µg/mL, partner 1 µg/mL | ≥ 1
[3], first compound 0.5 µg/mL, partner 2 µg/mL | 0.882
[3], first compound 1 µg/mL, partner 0.5 µg/mL | 0.864
[3], first compound 1 µg/mL, partner 1 µg/mL | 0.948
[3], first compound 1 µg/mL, partner 2 µg/mL | 0.875
[3], first compound 2 µg/mL, partner 0.5 µg/mL | 0.921
[3], first compound 2 µg/mL, partner 1 µg/mL | 0.989
[3], first compound 2 µg/mL, partner 2 µg/mL | 0.856
[4], first compound 1 µg/mL, partner 0.15 µg/mL | 0.892
[4], first compound 1 µg/mL, partner 0.3 µg/mL | 0.754
[4], first compound 2 µg/mL, partner 0.15 µg/mL | 0.893
[4], first compound 2 µg/mL, partner 0.3 µg/mL | 0.84
[4], first compound 4 µg/mL, partner 0.15 µg/mL | 0.924
[4], first compound 4 µg/mL, partner 0.3 µg/mL | 0.877

Conditions | Bliss interaction score
[5] | -0.0543
[6] | 0.0655
[7] | 0.0243
[8] | 0.0768

CCCCCCCCCC(=O)N[C@@H](Cc1c[nH]c2ccccc12)C(=O)N[C@H](CC(N)=O)C(=O)N[C@@H](CC(=O)O)C(=O)N[C@@H]1C(=O)NCC(=O)N[C@@H](CCCN)C(=O)N[C@@H](CC(=O)O)C(=O)N[C@H](C)C(=O)N[C@@H](CC(=O)O)C(=O)NCC(=O)N[C@H](CO)C(=O)N[C@@H]([C@H](C)CC(=O)O)C(=O)N[C@@H](CC(=O)c2ccccc2N)C(=O)O[C@@H]1C [Daptomycin] + CCN(CC)CCOC(=O)c1ccc(N)cc1 [Procaine]
fitness
Conditions | first compound 0.125 µg/mL | first compound 0.25 µg/mL | first compound 0.5 µg/mL | first compound 1 µg/mL | first compound 2 µg/mL | first compound 4 µg/mL
[1], partner 85.5 µg/mL | 0.873 | 0.946 | 0.864 | – | – | –
[1], partner 171 µg/mL | 0.9 | 0.898 | 0.799 | – | – | –
[1], partner 342 µg/mL | 0.874 | 0.836 | 0.854 | – | – | –
[2], partner 85.5 µg/mL | 0.912 | 0.913 | 0.931 | 0.956 | 0.774 | –
[2], partner 171 µg/mL | ≥ 1 | ≥ 1 | ≥ 1 | 0.873 | 0.822 | –
[2], partner 342 µg/mL | 0.995 | 0.989 | ≥ 1 | 0.953 | 0.808 | –
[3], partner 85.5 µg/mL | ≥ 1 | ≥ 1 | ≥ 1 | – | – | –
[3], partner 171 µg/mL | 0.984 | ≥ 1 | ≥ 1 | – | – | –
[3], partner 342 µg/mL | 0.989 | 0.98 | ≥ 1 | – | – | –
[4], partner 85.5 µg/mL | – | – | – | 0.994 | 0.961 | 0.945
[4], partner 171 µg/mL | – | – | – | 0.98 | 0.97 | 0.951
[4], partner 342 µg/mL | – | – | – | 0.942 | 0.906 | 0.893

[1], first compound 1 µg/mL, one replicate
Conditions | fitness
partner 85.5 µg/mL | 0.717
partner 171 µg/mL | 0.685
partner 342 µg/mL | 0.682

Conditions | Bliss interaction score
[5] | -0.0699
[6] | 0.0381
[7] | 0.0445
[8] | 0.0859
